Consider one compound from patent US9492471B2, “Methods of treating a disease or disorder associated with Bruton'S Tyrosine Kinase” (Celgene Avilomics Research, Inc., priority 2013, dated 2016).

Like-named read-outs stand apart in the source and are kept apart here.

As a reminder, the inhibition is the relative decrease from the control value, in per cent.

Experiment in all cases: HotSpot kinase profiling
What all share (type): biochemical

For one experiment, the target named is T1, TYK1/LTK (Homo sapiens, UniProt P29376).
T1 construct: purchased Reaction Biology Corp
The gist of the method:
(§1)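 Percent inhibition, averaged when run more than once and referenced to a DMSO negative control, came from a radioactive filter-binding readout on P81 paper. Reactions of kinase with freshly made substrate and cofactors ran for 2 h at room temperature.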

A further experiment has as its target T2, EPHB4 (Homo sapiens, UniProt P54760).
T2 construct: purchased Reaction Biology Corp
T2 sequence (P54760 16-987): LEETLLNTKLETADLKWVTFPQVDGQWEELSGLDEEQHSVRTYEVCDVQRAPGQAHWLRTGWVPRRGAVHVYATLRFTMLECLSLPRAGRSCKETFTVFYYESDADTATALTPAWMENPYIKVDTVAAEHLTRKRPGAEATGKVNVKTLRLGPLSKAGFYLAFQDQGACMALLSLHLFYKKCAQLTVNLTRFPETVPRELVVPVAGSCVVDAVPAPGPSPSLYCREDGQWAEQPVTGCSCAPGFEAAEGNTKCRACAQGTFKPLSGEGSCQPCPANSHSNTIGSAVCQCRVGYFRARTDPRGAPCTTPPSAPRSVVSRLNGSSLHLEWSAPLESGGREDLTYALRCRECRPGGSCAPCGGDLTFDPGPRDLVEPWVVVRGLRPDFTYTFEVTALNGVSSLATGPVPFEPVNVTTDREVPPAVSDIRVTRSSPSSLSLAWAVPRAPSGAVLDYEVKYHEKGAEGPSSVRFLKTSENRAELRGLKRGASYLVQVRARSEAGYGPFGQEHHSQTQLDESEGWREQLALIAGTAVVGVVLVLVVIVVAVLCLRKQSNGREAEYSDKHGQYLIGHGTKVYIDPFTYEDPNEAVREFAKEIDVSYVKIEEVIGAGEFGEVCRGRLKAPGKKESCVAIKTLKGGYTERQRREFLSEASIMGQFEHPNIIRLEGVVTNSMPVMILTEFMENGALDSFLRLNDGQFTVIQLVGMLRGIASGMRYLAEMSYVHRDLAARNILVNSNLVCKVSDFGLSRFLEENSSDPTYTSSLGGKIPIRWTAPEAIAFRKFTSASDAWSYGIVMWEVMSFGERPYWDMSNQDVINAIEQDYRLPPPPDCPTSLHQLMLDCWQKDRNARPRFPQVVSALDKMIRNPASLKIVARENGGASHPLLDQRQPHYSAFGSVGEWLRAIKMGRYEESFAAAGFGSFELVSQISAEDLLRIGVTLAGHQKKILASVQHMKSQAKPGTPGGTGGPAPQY
The gist of the method:
as §1

A further experiment concerns the target T3, MYLK3 (Homo sapiens, UniProt Q32MK0).
T3 construct: purchased Reaction Biology Corp
T3 sequence (Q32MK0 1-819): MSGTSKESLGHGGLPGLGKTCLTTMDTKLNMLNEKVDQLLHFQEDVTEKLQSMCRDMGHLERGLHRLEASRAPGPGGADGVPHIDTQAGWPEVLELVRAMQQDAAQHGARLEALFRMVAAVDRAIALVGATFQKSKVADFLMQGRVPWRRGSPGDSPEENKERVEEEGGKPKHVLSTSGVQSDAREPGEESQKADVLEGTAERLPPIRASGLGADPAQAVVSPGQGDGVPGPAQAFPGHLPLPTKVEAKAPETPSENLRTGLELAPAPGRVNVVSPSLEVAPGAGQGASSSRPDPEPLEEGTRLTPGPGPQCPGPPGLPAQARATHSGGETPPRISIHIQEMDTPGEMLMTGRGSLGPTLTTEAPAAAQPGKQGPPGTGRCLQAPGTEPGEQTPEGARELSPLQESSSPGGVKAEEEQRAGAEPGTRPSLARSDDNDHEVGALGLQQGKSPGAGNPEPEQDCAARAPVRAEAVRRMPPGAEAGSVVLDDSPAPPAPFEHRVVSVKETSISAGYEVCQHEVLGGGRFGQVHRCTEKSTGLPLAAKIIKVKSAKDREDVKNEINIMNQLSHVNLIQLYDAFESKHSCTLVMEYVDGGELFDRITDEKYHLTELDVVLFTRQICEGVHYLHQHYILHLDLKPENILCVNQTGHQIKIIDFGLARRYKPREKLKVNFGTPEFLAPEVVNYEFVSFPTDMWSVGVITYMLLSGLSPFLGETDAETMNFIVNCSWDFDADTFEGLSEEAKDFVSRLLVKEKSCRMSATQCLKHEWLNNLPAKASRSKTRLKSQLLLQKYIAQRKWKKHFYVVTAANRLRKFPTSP
The method, boiled down:
as §1

[1] abbreviates: read-out: % Enzyme Activity (relative to DMSO controls) Run 1.
Setting [2] is: read-out: % Enzyme Activity (relative to DMSO controls) Run 2.

T1 sequence (P29376 17-864): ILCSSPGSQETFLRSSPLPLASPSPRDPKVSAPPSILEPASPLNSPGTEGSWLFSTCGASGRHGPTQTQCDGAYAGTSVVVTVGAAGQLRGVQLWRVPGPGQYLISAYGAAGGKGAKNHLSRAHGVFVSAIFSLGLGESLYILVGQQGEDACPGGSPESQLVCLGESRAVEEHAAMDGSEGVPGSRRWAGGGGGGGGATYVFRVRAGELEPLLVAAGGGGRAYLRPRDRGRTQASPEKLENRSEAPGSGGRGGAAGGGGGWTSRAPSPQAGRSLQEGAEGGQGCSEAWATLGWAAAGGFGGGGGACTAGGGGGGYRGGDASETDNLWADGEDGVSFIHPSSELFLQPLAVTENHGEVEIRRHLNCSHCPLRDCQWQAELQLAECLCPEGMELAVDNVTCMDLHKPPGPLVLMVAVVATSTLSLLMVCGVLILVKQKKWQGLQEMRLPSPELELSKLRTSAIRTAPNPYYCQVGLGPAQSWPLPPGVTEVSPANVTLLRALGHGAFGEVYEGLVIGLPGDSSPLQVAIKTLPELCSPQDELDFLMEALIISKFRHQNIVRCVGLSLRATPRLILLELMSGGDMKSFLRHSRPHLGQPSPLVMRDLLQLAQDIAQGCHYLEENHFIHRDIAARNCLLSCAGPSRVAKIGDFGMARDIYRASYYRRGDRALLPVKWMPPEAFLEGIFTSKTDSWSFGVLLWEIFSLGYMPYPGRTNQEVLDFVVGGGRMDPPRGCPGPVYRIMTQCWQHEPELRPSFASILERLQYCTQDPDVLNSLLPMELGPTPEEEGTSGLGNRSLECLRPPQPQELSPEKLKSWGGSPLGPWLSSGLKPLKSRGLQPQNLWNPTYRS

Consider `C=CC(=O)Nc1cccc(Nc2nc(Nc3ccc(OCCOC)c(F)c3)ncc2F)c1` [Compound 2], for which the inhibition at 3 µM was 23.2% at TYK1/LTK, 18.6% at EPHB4 and -15% against MYLK3. In addition, the remaining activity at 3 µM is 77.8% on TYK1/LTK (setting [1]); 75.8% on TYK1/LTK (setting [2]); 81.2% on EPHB4 (setting [1]); 81.5% on EPHB4 (setting [2]); 113% on MYLK3 (setting [1]); 116% on MYLK3 (setting [2]).
